From patent US11331271B2, “Buccal, sublingual and intranasal delivery of fospropofol” (The Johns Hopkins University, priority 2016, dated 2022)
Entries after “also recorded” stand apart in the source; their conditions may differ.

Test system: rat chronic constrictive injury model of neuropathic pain
Assay: Neuropathic pain studies in rats (thermal hyperalgesia, withdrawal latency)
Assay type: in vivo
Conditions: for alleviation of thermal hyperalgesia: 45-60 min post-dose; for time course of analgesic effect: tested 1, 2 and 4 h after dosing
Procedure: This study was performed as previously described (Vornov, et al., 2013). In brief, male Sprague-Dawley rats (200-250 g) were anesthetized with halothane. The common sciatic nerve on one hind limb was exposed by separating the biceps femoris from the gluteus superficialis. The nerve was subsequently isolated from the surrounding tissue and four ligatures (4.0 chromic gut) were tied loosely around it with about 1-mm spacing. On the other hind limb of the rat, the nerve was similarly isolated but no ligatures were placed, (sham surgery). Thermal pain sensitivity was evaluated using a plantar test apparatus according to previous methods (Hargreaves, et al., 1988). In brief, this involved applying a constant infrared stimulus to the plantar surface of the hind paw using a Basile Plantar apparatus (Ugo Basile, Vaarese, Italy). Withdrawal latency was measured as the time taken for the rat to withdraw its paw from the heat source to the nearest 0.1 s. The “difference score” was calculated by subtracting the average latency of the non-ligated versus ligated side. Animals were habituated to the test chambers (clear plastic compartment maintained in a quiet room) for several hours over 3-4 days, prior to any measurement. Baseline hyperalgesia was recorded 10-12 days post-surgery after the habituation. On test day, each animal received either fospropofol (50, 75 or 100 mg/kg) or vehicle (distilled water) via oral gavage in a volume of 2 mL/kg in a randomized and blinded fashion. Withdrawal latency measurements were then recorded five times for both the operated and sham hind paws of each rat starting from 45 to 60 min post dose. The final latency measurement represents a mean of the last four out of a total of five responses, each being taken at least 5 min apart on the same paw. The difference in response latency for each rat for each leg was calculated and used to determine the mean latency difference response time for each group.

**Q.** Which results are given for `CC(C)c1cccc(C(C)C)c1OCOP(=O)(O)O` [fospropofol]?
**A.** alleviation of thermal hyperalgesia (75 mg/kg PO): active in alleviating thermal hyperalgesia; also recorded: effective in reducing hyperalgesia; time course of analgesic effect (75 mg/kg PO): losing activity by 2 h; time course of analgesic effect (75 mg/kg PO, listed as Fospropofol): effective only when tested at 1 h; alleviation of thermal hyperalgesia (100 mg/kg PO): active in alleviating thermal hyperalgesia; also recorded: effective in reducing hyperalgesia; absolute latency of the ligated side vs vehicle (1 hour after oral fospropofol): dose dependent increase; withdrawal latency on sham (non-ligated) side vs vehicle (PO fospropofol): no change in latencies; also recorded: did not change
